Source: ChEMBL document CHEMBL1146385, “Discovery of novel phenoxyacetic acid derivatives as antimycobacterial agents” (2007)
≈ marks a conversion by molar mass, not a printed value.

system: Mycobacterium tuberculosis; assay: Antimycobacterial activity against Mycobacterium tuberculosis H37Rv ATCC 27294 by broth micro dilution assay; type: functional

With `COc1cc(C2=NN(C(N)=S)C(Cc3ccccc3)C2)ccc1OCC(=O)O` (configuration not stated) as the molecule, how does the MIC read?
Its MIC is 6.25 µg/mL (≈ 15.6 µM).

`COc1cc(C2=NN(C(N)=S)C(c3ccccc3O)C2)ccc1OCC(=O)O` (configuration not stated) was tested. Which MIC did it give?
Its MIC is 0.58 µg/mL (≈ 1.44 µM).

`COc1cc(C2=NN(C(N)=O)C(c3ccccc3)C2)ccc1OCC(=O)O` (configuration not stated) was tested. Which MIC did it give?
Its MIC is 6.25 µg/mL (≈ 16.9 µM).

Which MIC does the source give for `COc1cc(C2=NN(C(N)=O)C(c3ccc(C)cc3)C2)ccc1OCC(=O)O` (configuration not stated) here?
The MIC was 4.12 µg/mL (≈ 10.7 µM).

With `COc1cc(C2=NN(C(N)=S)C(c3ccc(O)cc3)C2)ccc1OCC(=O)O` (configuration not stated) as the molecule, how does the MIC read?
The MIC was 0.2 µg/mL (≈ 0.498 µM).

`COc1cc(C2=NN(C(N)=O)C(c3ccccc3Cl)C2)ccc1OCC(=O)O` (configuration not stated) was tested. Which MIC did it give?
Its MIC is 1.26 µg/mL (≈ 3.12 µM).

Which MIC does the source give for `COc1cc(C2=NN(C(N)=O)C(c3ccc(N)cc3)C2)ccc1OCC(=O)O` (configuration not stated) here?
Its MIC is 5.32 µg/mL (≈ 13.8 µM).

`COc1cc(C2=NN(C(N)=S)C(c3ccc(C)cc3)C2)ccc1OCC(=O)O` (configuration not stated) was tested. Which MIC did it give?
Its MIC is 6.15 µg/mL (≈ 15.4 µM).

Which MIC does the source give for `COc1cc(C2=NN(C(N)=S)C(c3ccc(Cl)cc3)C2)ccc1OCC(=O)O` (configuration not stated) here?
The MIC was 0.06 µg/mL (≈ 0.143 µM).

How did the MIC turn out when `COc1cc(C2=NN(C(N)=S)C(c3ccccc3Cl)C2)ccc1OCC(=O)O` (configuration not stated) was run?
The MIC was 0.12 µg/mL (≈ 0.286 µM).

For `COc1cc(C2=NN(C(N)=O)C(c3ccc(F)cc3)C2)ccc1OCC(=O)O` (configuration not stated), which MIC is on record?
Its MIC is 3.16 µg/mL (≈ 8.16 µM).

`COc1cc(C2=NN(C(N)=O)C(c3ccc(Cl)cc3)C2)ccc1OCC(=O)O` (configuration not stated) was tested. Which MIC did it give?
The MIC was 0.13 µg/mL (≈ 0.322 µM).

`COc1cc(C2=NN(C(N)=O)C(Cc3ccccc3)C2)ccc1OCC(=O)O` (configuration not stated) was tested. Which MIC did it give?
Its MIC is 6.25 µg/mL (≈ 16.3 µM).

`COc1cc(C2=NN(C(N)=S)C(c3ccc(N)cc3)C2)ccc1OCC(=O)O` (configuration not stated) was tested. Which MIC did it give?
The MIC was 12.5 µg/mL (≈ 31.2 µM).

With `COc1cc(C2=NN(C(N)=S)C(c3cccc([N+](=O)[O-])c3)C2)ccc1OCC(=O)O` (configuration not stated) as the molecule, how does the MIC read?
Its MIC is 6.25 µg/mL (≈ 14.5 µM).

How did the MIC turn out when `COc1cc(C2=NN(C(N)=S)C(c3ccccc3)C2)ccc1OCC(=O)O` (configuration not stated) was run?
Its MIC is 6.25 µg/mL (≈ 16.2 µM).

`COc1cc(C2=NN(C(N)=O)C(c3ccccc3O)C2)ccc1OCC(=O)O` (configuration not stated) was tested. Which MIC did it give?
The MIC was 0.58 µg/mL (≈ 1.51 µM).

`COc1cc(C2=NN(C(N)=O)C(c3cccc([N+](=O)[O-])c3)C2)ccc1OCC(=O)O` (configuration not stated) was tested. Which MIC did it give?
Its MIC is 6.25 µg/mL (≈ 15.1 µM).

Which MIC does the source give for `COc1cc(C2=NN(C(N)=S)C(c3ccc(F)cc3)C2)ccc1OCC(=O)O` (configuration not stated) here?
The MIC was 0.96 µg/mL (≈ 2.38 µM).

Which MIC does the source give for `COc1cc(C2=NN(C(N)=O)C(c3ccc(O)cc3)C2)ccc1OCC(=O)O` (configuration not stated) here?
Its MIC is 1.23 µg/mL (≈ 3.19 µM).

How did the MIC turn out when `COc1cc(C2=NN(C(N)=O)C(c3ccc([N+](=O)[O-])cc3)C2)ccc1OCC(=O)O` (configuration not stated) was run?
The MIC was 6.25 µg/mL (≈ 15.1 µM).

Which MIC does the source give for `COc1cc(C2=NN(C(N)=S)C(c3ccc([N+](=O)[O-])cc3)C2)ccc1OCC(=O)O` (configuration not stated) here?
The MIC was 6.32 µg/mL (≈ 14.7 µM).
